In patent US10858305B2, “Perillyl alcohol-3-bromopyruvate conjugate and methods of treating cancer” (NeOnc Technologies, Inc., priority 2016, dated 2020):
Entries after “also recorded” stand apart in the source; their conditions may differ.

Experiments:
Type in all cases: cell-based, human
[1] = tested on: HCT116 colon cancer cells; test: Cellular ATP content assay; conditions: 100 nM rotenone in glucose-free medium
Method: HCT116 cells were treated with 40 μM 3-BP or NEO218. As a point of reference, cells were also exposed to 100 nM rotenone in glucose-free medium. ATP levels were determined after 3 and 6 hours. ATP levels in untreated cells were set at 100% (corresponding to 26.6 nmol per one million cells).
HCT116 colon cancer cells were treated cells with: NEO218, 3-BP; rotenone (a mitochondrial poison that blocks the respiratory chain); medium without glucose (“no gluc”; in order to shut down glycolysis); and, rotenone in combination with absent glucose (to cease all intracellular ATP production). After 3 hours of treatment, a commercially available ATP detection assay kit was employed to determine the relative levels of ATP present.
ATP content of cells was measured with the ATP Colorimetric/Fluorometric Assay kit (Biovision Inc., Milpitas, Calif.), which utilizes the phosphorylation of glycerol to generate a product that is quantified by colorimetry at 570 nm. Approximately 1×10^6 cells were cultured in 10-cm tissue culture plates, exposed to drug treatment for various time periods, and then processed as per manufacturer's instructions. All ATP levels were normalized to untreated controls and presented as percentage of controls.

tumor cell lines = test: cells; conditions: Homo sapiens; MTT, 24 hours; POH alone; read-out: concentration required to reach IC50
Method: Different tumor cell lines were treated with 3-BP mixed with POH, and the effects were compared to the effects of NEO218, as well as to 3-BP alone. The cells were treated for 24 hours, and then the MTT assay was conducted to measure cell viability.

[2] = tested on: MDA-MB-231 breast cancer cells; test: LDH release assay in MDA-MB-231 / breast cancer cell lines; conditions: breast cancer cell lines, 24 hours
Method: (§1) (A) MTT assay was performed after 24 hours. […] (B) LDH assay was performed after […]. LDH release by untreated cells was set to 1. Relative fold increase is shown (n=3).
(§2) (A) MTT assay was performed after 24 hours. Viability of untreated cells was set at 100% (data points are averages of 2 experiments). (B) LDH assay was performed after 24 hours. LDH release by untreated cells was set to 1. Relative fold increase is shown (averages from 2 experiments). (C) Representative photos show typical colony formation after initial 48 hours of drug treatment. In all cases of combination treatment with 3-BP mixed with […] (3-BP+POH), the indicated concentrations refer to each individual drugs, i.e., 100 μM 3-BP+POH means that 100 μM 3-BP was combined with 100 μM POH.
The capacity for rapid cell killing by NEO218 relative to 3-BP, POH and 3-BP+POH was evaluated via LDH assay, where LDH release is used as a proxy for cell death.
In FIG. 4, Panels (a) and (b), show the results of treating breast cancer cell lines with increasing concentrations of NEO218, 3-BP, or 3-BP mixed with POH. […] In all cases a-d, the release of LDH (as a marker of cell death) was measured after 24 hours.
Depending on the cell line, 2000 to 4000 cells per well were seeded in a volume of 50 μL into a 96-well plate. The next day, drugs ere added in an additional 50 μL of medium. At different time points (usually after 24 hours of incubation), 50 μL medium was removed and processed with the LDH Cytotoxicity Assay Kit (Thermo Fisher Scientific, Waltham, Mass.) according to the manufacturer's instructions. This kit measures extracellular LDH in culture medium using an enzymatic reaction that results in a red formazan product, which can be measured spectrophotometrically. The absorbance was measured at 490 and 680 nm. All LDH levels were normalized to untreated controls and presented as fold change of the controls.

[3] = tested on: tumor cells (two cell lines, incl. MCF7/Dox); test: Colony formation assay (CFA), 24 hours drug exposure (FIG. 5); conditions: Homo sapiens, MCF7-DOX, colonies after ten to fifteen days, read-out: IC50 (cell survival and colony formation)
Method: The effect of NEO218 on tumor cell survival and colony formation relative to 3-BP, POH and 3-BP+POH was evaluated via the colony formation assay (CFA). Six hundred cells per culture well were seeded and exposed to increasing concentrations of NEO218, 3-BP, a mix of 3-BP+POH, or POH alone. After 24 hours, all drugs were removed from cells and fresh culture medium was added. Ten to fifteen days later, the surviving cells had formed colonies of descendants, which were stained and counted.

[4] = tested on: all cell types (breast, brain, ovary, colon cancer cell lines); test: Summary of cytotoxicity over MTT, LDH and colony formation assays (FIGS. 2-5); conditions: all cells
From the text: The tumor cell-killing potency of NEO218 was characterized by in vitro, short-term MTT assays (measuring viability of cells via determination of metabolic activity), LDH assays (measuring the release of lactate dehydrogenase as an indicator of leaky cell membranes, which are indicative of dying cells), and colony-formation assays (CFA, which determine long-term survival of drug-treated cells and their ability to spawn a colony of descendants). Several established cell lines derived from cancers of the breast were used as target cells (including MDA-MB-231; MDA-MB-468; T47D; MCF7; MCF7/Dox; BTB12), brain (T98G; U251), ovary (A2780), and colon (HCT116). In all cases, cells in culture were exposed to increasing concentrations of agents for 24 or 48 hours.

MDA-MB-231 cells = test: MTT short-term toxicity assay in MDA-MB-231 cells; conditions: MDA-MB-231
Method: as §1, §2
Methylthiazoletetrazolium (MTT) assays were performed as described earlier.

[5] = tested on: cleaved caspase 7, cleaved PARP, γ-H2AX in MCF7, MDA-MB-231 and HCT116 cells; test: Western blot for apoptosis markers; conditions: STS as positive control
Method: (§3) (A) FACS analysis of HCT116 cells after treatment for 2, 4, or 8 hours with vehicle, 30 μM 3-BP, 30 μM NEO218, or 1 μM staurosporine (STS). […] (B) Western blot analysis of apoptotic markers. In the top section, MDA-MB-231 cells were treated with 30 μM NEO218 or 1 μM STS for various time points. In the lower section, HCT116 cells were treated with the indicated concentrations of 3-BP, NEO218, or STS for 16 hours. In all cases cell lysates were prepared and analyzed for the well-established apoptotic markers cleaved PARP, cleaved (i.e., activated) caspase 7 (cl. C-7), and phosphorylated (i.e., active) H2AX. Actin was used as a loading control. (C) HCT116 cells were pretreated with 50 μM Z-VAD-FMK for one hour, followed by the addition of increasing concentrations of 3-BP or NEO218. Cell viability was determined by MTT assay 24 hours later. Data points are averages from n=3.
The capacity for NEO218 to induce apoptosis was evaluated in a series of experiments. Three different cell lines were treated 3-BP and NEO218. Drug-treated cells were harvested, and cellular lysates were analyzed by Western blot for the presence of the three well-established markers of apoptosis: • cleaved caspase 7 (cl. C7); • cleaved (cl.) vs. full-length (f.l.) PARP; and, • induction of γ-H2AX (which indicates DNA cleavage).
The appearance of cl. C7 and cl. PARP is indicative of ongoing apoptotic processes. In all cases, lysates were also probed for the presence of actin as a control.
Two breast cancer cell lines (MCF7 and MDA-MB-231) and one colon cancer cell line (HCT116) were treated with increasing concentrations of NEO218 or 3-BP. As a control, they were also treated with staurosporine (STS), a known potent inducer of apoptosis. Western blot analyses for the presence of apoptosis markers are shown in the left panels of FIG. 6.
Total cell lysates were analyzed by Western blot analysis as described earlier. Primary antibodies against cleaved caspase 7 and PARP were obtained from Cell Signaling Technology (Danvers, Mass.), and antibodies against actin (C-11) and MCT1 (H-1) were obtained from Santa Cruz Biotechnology (Santa Cruz, Calif.). All antibodies were used according to the manufacturers' recommendations, except that in the case of MCT1 detection, the boiling step was omitted before loading the samples onto the polyacrylamide gel. All immunoblots were repeated at least once to confirm the results.

HCT116 cells = test: FACS analysis for annexin V and propidium iodide; conditions: 2, 4 or 8 hours of treatment
Method: as §3
In the absence of indications that apoptotic mechanisms played a significant role in cell death induced by NEO218, necrosis was investigated as a potential key mechanism. The distinction between apoptotic and necrotic cell death was made by measuring annexin V staining (a marker of apoptosis) and PI (propidium iodide) staining (a marker of necrosis) of drug-treated cells, in comparison to non-drug-treated cells (as a control). Measurements of annexin V and PI were done by FACS analysis after 2, 4, or 8 hours of treatment. Cells were treated with NEO218, 3-BP, and staurosporine (individually), and incorporation of propidium iodide (PI, a marker of necrotic cell death) or annexin V (a marker for apoptosis) was determined by fluorescence-activated cell sorting.
The results are organized in FIG. 8 as follows: no treatment (top row), 3-BP (second row), NEO218 (third row), and staurosporine (bottom row).
Characterization of cell death was performed by flow cytometry using the Alexa Fluor® 488 Annexin V/Dead Cell Apoptosis kit (Thermo Fisher Scientific). This kit contains recombinant, green fluorophore-conjugated annexin V, which reacts with apoptotic cells, and DNA-binding, red-fluorescent propidium iodide (PI), which is impermeant to live and apoptotic cells, but stains dead cells. The different cell populations can be distinguished by green fluorescence (apoptotic cells), red fluorescence (necrotic/dead cells), and no fluorescence (live cells) during flow cytometry with 488 nm laser excitation. Control or drug-treated cells were processed as per manufacturer's instructions, followed by flow cytometry of 10,000 cells per point with an LSR II (BD Biosciences, San Jose, Calif.) at the USC Flow Cytometry Core Facility.

Structure (SMILES): C=C(C)[C@H]1Cc2c(ccc3c2O[C@@H]2COc4cc(OC)c(OC)cc4[C@@H]2C3=O)O1 [rotenone]
- ATP level ([1]; after six hours): about 10 % of normal
- ATP level ([1]; within the first 3 hours, untreated = 100%): < 25%

Structure (SMILES): C=C(C)[C@@H]1CC=C(CO)CC1 [POH, perillyl alcohol]
- IC50 (tumor cell lines): ≥ 500 µM
- toxic potency by LDH release [2]: requires fairly high concentrations to achieve cell killing
- IC50 [3]: > 1000 µM
- IC50 of POH alone [4]: several hundred
- IC50 of POH alone (MDA-MB-231 cells): approaching the millimolar range

Structure (SMILES): CN[C@@H]1C[C@H]2O[C@@](C)([C@@H]1OC)n1c3ccccc3c3c4c(c5c6ccccc6n2c5c31)C(=O)NC4 [staurosporine]
- induction of apoptosis markers (cleaved PARP, cleaved caspase 7, γ-H2AX) [5]: striking induction of all 3 markers of apoptosis
- induction of apoptosis markers (cleaved PARP, cleaved caspase 7, γ-H2AX) ([5]; listed as STS): triggered pronounced cleavage of PARP, activation of C-7; also recorded: prominent appearance of apoptotic markers
- incorporation of PI (necrosis) versus annexin V (apoptosis) (HCT116 cells): incorporation of annexin V, but very little PI
- incorporation of PI (necrosis) versus annexin V (apoptosis) (HCT116 cells; listed as STS): moved from the lower left quadrant (=fully viable cells) to the lower right quadrant (=annexin V-positive cells)
